Data as given in patent US8481537B2, “Caspase inhibitors based of pyridazinone scaffold” (LG Life Sciences Ltd., priority 2006, dated 2013).

How the values were obtained:
Caspase-8 = target: T1, Caspase-8 (Homo sapiens, UniProt Q14790); assay: Caspase inhibitory effect, fluorescent substrate AcDEVD-AFC; type: biochemical; conditions: pH 7.5; 2.1 nM caspase-8, 50 μM AcDEVD-AFC, 25° C., pH 7.50; read-out: Caspase-8 Kobs/[I] (converted)
T1 construct: p10 and p20 subunits (Thornberry, N. A. et al, Nature, 1992, 356, 768) were expressed in E. coli; made in house; host or cells: E. coli
Description: Caspase-1 and caspase-8 known as cysteine proteases in the form of α2β2 were expressed, purified, and activated by modifying a method known in Thornberry, N. A. et al, Nature, 1992, 356, 768. Thornberry, N. A. Methods in Enzymology, 1994, 244, 615. Walker, N. P. C. et al. Cell, 1994, 78, 343, and caspase-9 was also purified by a similar method, and the inhibitory activity against them was tested. Briefly describing, p10 and p20 subunits (Thornberry, N. A. et al, Nature, 1992, 356, 768) were expressed in E. coli and purified by nickel column and anionic exchange chromatography to give caspase-1, caspase-8 and caspase-9. The fluorescent substrates AcYVAD-AFC for thus obtained caspase-1, AcDEVD-AFC for caspase-8, and AcLEHD-AFC for caspase-9, were used for determining specific activity of the synthesized inhibitors. The enzyme reaction was carried out at 25° C. with various concentrations of the inhibitors in a buffer solution containing 50 mM HEPES(pH 7.50), 10% (w/v) sucrose, 0.1% (w/v) CHAPS, 100 mM NaCl, 1 mM EDTA, and 10 mM DTT in the presence of 50 μM AcYVAD-AFC for 10 nM caspase-1, 50 μM AcDEVD-AFC for 2.1 nM caspase-8, and 150 μM AcLEHD-AFC for 200 nM caspase-9. The inhibitory constants Ki and Kobs of the inhibitors were determined by measuring the reaction velocity with the time lapse using a fluorescent spectrometer and by obtaining the initial rate constant. Ki was calculated from the Lineweaver Burk Plot, and Kobs from the following Equation 1. Kobs=−ln(1−At/Aoo)/t [Equation 1]
At means cleavage rate (%) at time t, and
Aoo means the maximum cleavage rate (%).
Spectra MAX GeminiXS Fluorescent Spectrometer of Molecular Device Co. was used at the excitation wavelength of 405 nm and the emission wavelength of 505 nm.

[1] = test system: Jurkat cell (ATCC TIB-152); assay: Jurkat cell apoptosis induced by Fas antibody, WST-1 method; type: cell-based; conditions: Homo sapiens, amount of alive cells by WST-1
Description: The […] inhibitory activity of the inhibitors was determined by subjecting Jurkat cell (ATCC TIB-152) to apoptosis using Fas antibody (Upstate Biotech 05-201) and by detecting the color change according to the WST-1 method known in Francoeur A. M. and Assalian A. (1996) Biochemica 3, 19-25 to observe the amount of alive Jurkat cells when the cells were treated by the inhibitor. Spectra MAX 340 Spectrometer of Molecular Device Co. was used at the absorbance wavelength of 440 nm.

T1 sequence (Q14790 217-374 limits assumed, species assumed): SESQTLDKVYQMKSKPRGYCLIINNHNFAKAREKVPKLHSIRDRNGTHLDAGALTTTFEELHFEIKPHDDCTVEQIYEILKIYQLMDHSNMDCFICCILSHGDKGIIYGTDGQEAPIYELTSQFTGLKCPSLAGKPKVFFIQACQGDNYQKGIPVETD
T1 sequence (Q14790 385-479 limits assumed, species assumed): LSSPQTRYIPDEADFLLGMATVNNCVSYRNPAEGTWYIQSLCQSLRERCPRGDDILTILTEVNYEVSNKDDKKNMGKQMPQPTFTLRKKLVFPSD

CC[C@@H](C(=O)N[C@@H](CC(=O)O)C(=O)COC(=O)c1c(Cl)cccc1Cl)c1ccnn(Cc2ccccc2C(C)(C)C)c1=O (single isomer, unassigned) [Example 23-1]
kinact/KI (Caspase-8): 20000 M⁻¹ s⁻¹
IC50 [1]: 0.14 µM

CC[C@H](C(=O)N[C@@H](CC(=O)O)C(=O)COC(=O)c1c(Cl)cccc1Cl)c1ccnn(Cc2ccccc2C(C)(C)C)c1=O (single isomer, unassigned) [Example 23-2]
kinact/KI (Caspase-8): 933 M⁻¹ s⁻¹
IC50 [1]: 2.48 µM

CCC(C(=O)NC(CC(=O)O)C(=O)CF)c1c(C)cnn(-c2ccccc2)c1=O (centres unmarked) [Example 1, 5-Fluoro-3-[2-(5-methyl-3-oxo-2-phenyl-2,3-dihydro-pyridazin-4-yl)-butyrylamino]-4-oxo-pentanoic acid]
kinact/KI (Caspase-8): 967 M⁻¹ s⁻¹
IC50 [1]: 8 µM

CCC(C(=O)NC(CC(=O)O)C(=O)CF)c1c(C)cnn(Cc2ccccc2)c1=O (centres unmarked) [Example 2, 3-[2-(2-Benzyl-5-methyl-3-oxo-2,3-dihydro-pyridazin-4-yl)-butyrylamino]-5-f luoro-4-oxo-pentanoic acid]
kinact/KI (Caspase-8): 7330 M⁻¹ s⁻¹
IC50 [1]: 1.48 µM

CCC(C(=O)NC(CC(=O)O)C(=O)CF)c1ccnn(Cc2ccccc2)c1=O (centres unmarked) [Example 3, 3-[2-(2-Benzyl-3-oxo-2,3-dihydro-pyridazin-4-yl)-butyrylamino]-5-fluoro-4-o xo-pentanoic acid]
kinact/KI (Caspase-8): 21700 M⁻¹ s⁻¹
IC50 [1]: 0.46 µM

CCC(C(=O)NC(CC(=O)O)C(=O)CF)c1c(Cl)cnn(Cc2ccccc2)c1=O (centres unmarked) [Example 4, 3-[2-(2-Benzyl-5-chloro-3-oxo-2,3-dihydro-pyridazin-4-yl)-butyrylamino]-5-fl uoro-4-oxo-pentanoic acid]
kinact/KI (Caspase-8): 6830 M⁻¹ s⁻¹
IC50 [1]: 0.39 µM

CCC(C(=O)NC(CC(=O)O)C(=O)CF)c1c(OC)cnn(Cc2ccccc2)c1=O (centres unmarked) [Example 5, 3-[2-(2-Benzyl-5-methoxy-3-oxo-2,3-dihydro-pyridazin-4-yl)-butyrylamino]-5-fluoro-4-oxo-pentanoic acid]
kinact/KI (Caspase-8): 3830 M⁻¹ s⁻¹
IC50 [1]: 2.07 µM

CCC(C(=O)NC(CC(=O)O)C(=O)CF)c1ccnn(Cc2ccccc2C(C)(C)C)c1=O (centres unmarked) [Example 6, 3-2-[2-(2-tert-Butyl-benzyl)-3-oxo-2,3-dihydro-pyridazin-4-yl]-butyrylamino-5-fluoro-4-oxo-pentanoic acid]
kinact/KI (Caspase-8): 63300 M⁻¹ s⁻¹
IC50 [1]: 0.042 µM

CCC(C(=O)NC(CC(=O)O)C(=O)CF)c1ccnn(Cc2cccc(C(C)(C)C)c2)c1=O (centres unmarked) [Example 7, 3-2-[2-(3-tert-Butyl-benzyl)-3-oxo-2,3-dihydro-pyridazin-4-yl]-butyrylamino-5-fluoro-4-oxo-pentanoic acid]
kinact/KI (Caspase-8): 23300 M⁻¹ s⁻¹
IC50 [1]: 0.035 µM

CCC(C(=O)NC(CC(=O)O)C(=O)CF)c1ccnn(Cc2ccccc2C)c1=O (centres unmarked) [Example 8, 5-Fluoro-3-2-[2-(2-methyl-benzyl)-3-oxo-2,3-dihydro-pyridazin-4-yl]-butyryl amino-4-oxo-pentanoic acid]
kinact/KI (Caspase-8): 20000 M⁻¹ s⁻¹
IC50 [1]: 0.82 µM

CCC(C(=O)NC(CC(=O)O)C(=O)CF)c1ccnn(Cc2cccc(C)c2)c1=O (centres unmarked) [Example 9, 5-Fluoro-3-2-[2-(3-methyl-benzyl)-3-oxo-2,3-dihydro-pyridazin-4-yl]-butyryl amino-4-oxo-pentanoic acid]
kinact/KI (Caspase-8): 50000 M⁻¹ s⁻¹
IC50 [1]: 0.88 µM

CCC(C(=O)NC(CC(=O)O)C(=O)CF)c1ccnn(Cc2cccc(OC)c2)c1=O (centres unmarked) [Example 10, 5-Fluoro-3-2-[2-(3-methoxy-benzyl)-3-oxo-2,3-dihydro-pyridazin-4-yl]-butyr ylamino-4-oxo-pentanoic acid]
kinact/KI (Caspase-8): 20000 M⁻¹ s⁻¹
IC50 [1]: 0.55 µM

CCC(C(=O)NC(CC(=O)O)C(=O)CF)c1ccnn(Cc2cccc3ccccc23)c1=O (centres unmarked) [Example 11, 5-Fluoro-3-[2-(2-naphthalen-1-ylmethyl-3-oxo-2,3-dihydro-pyridazin-4-yl)-butyrylamino]-4-oxo-pentanoic acid]
kinact/KI (Caspase-8): 56700 M⁻¹ s⁻¹
IC50 [1]: 0.17 µM

CCC(C(=O)NC(CC(=O)O)C(=O)CF)c1ccnn(Cc2ccc3ccccc3c2)c1=O (centres unmarked) [Example 12, 5-Fluoro-3-[2-(2-naphthalen-2-ylmethyl-3-oxo-2,3-dihydro-pyridazin-4-yl)-butyrylamino]-4-oxo-pentanoic acid]
kinact/KI (Caspase-8): 15500 M⁻¹ s⁻¹
IC50 [1]: 0.29 µM

CCC(C(=O)NC(CC(=O)O)C(=O)CF)c1ccnn(Cc2coc(C)n2)c1=O (centres unmarked) [Example 13, 5-Fluoro-3-2-[2-(2-methyl-oxazol-4-ylmethyl)-3-oxo-2,3-dihydro-pyridazin-4-yl]-butyrylamino-4-oxo-pentanoic acid]
kinact/KI (Caspase-8): 11500 M⁻¹ s⁻¹
IC50 [1]: 3.76 µM

CCC(C(=O)NC(CC(=O)O)C(=O)CF)c1ccnn(Cc2csc(C)n2)c1=O (centres unmarked) [Example 14, 5-Fluoro-3-2-[2-(2-methyl-thiazol-4-ylmethyl)-3-oxo-2,3-dihydro-pyridazin-4-yl]-butyrylamino-4-oxo-pentanoic acid]
kinact/KI (Caspase-8): 14000 M⁻¹ s⁻¹
IC50 [1]: 0.73 µM

CCC(C(=O)NC(CC(=O)O)C(=O)CF)c1ccnn(Cc2c(C)noc2C)c1=O (centres unmarked) [Example 15, 3-2-[2-(3,5-Dimethyl-isoxazol-4-ylmethyl)-3-oxo-2,3-dihydro-pyridazin-4-yl]-butyrylamino-5-fluoro-4-oxo-pentanoic acid]
kinact/KI (Caspase-8): 12000 M⁻¹ s⁻¹
IC50 [1]: 0.8 µM

CCC(C(=O)NC(CC(=O)O)C(=O)CF)c1ccnn(CC2CCCCC2)c1=O (centres unmarked) [Example 16, 3-[2-(2-Cyclohexylmethyl-3-oxo-2,3-dihydro-pyridazin-4-yl)-butyrylamino]-5-fluoro-4-oxo-pentanoic acid]
kinact/KI (Caspase-8): 12300 M⁻¹ s⁻¹
IC50 [1]: 0.09 µM

CCC(C(=O)NC(CC(=O)O)C(=O)CF)c1ccnn(Cc2nccc3ccccc23)c1=O (centres unmarked) [Example 17, 5-Fluoro-3-[2-(2-isoquinolin-1-ylmethyl-3-oxo-2,3-dihydro-pyridazin-4-yl)-butyrylamino]-4-oxo-pentanoic acid]
kinact/KI (Caspase-8): 25000 M⁻¹ s⁻¹
IC50 [1]: 0.13 µM

CCC(C(=O)NC(CC(=O)O)C(=O)CF)c1ccnn(Cc2ccccc2Cl)c1=O (centres unmarked) [Example 18, 3-{2-[2-(2-Chloro-benzyl)-3-oxo-2,3-dihydro-pyridazin-4-yl]-butyrylamino}-5-fluoro-4-oxo-pentanoic acid]
kinact/KI (Caspase-8): 73300 M⁻¹ s⁻¹
IC50 [1]: 0.042 µM

CCC(C(=O)NC(CC(=O)O)C(=O)CF)c1ccnn(Cc2cccc(Cl)c2)c1=O (centres unmarked) [Example 19, 3-{2-[2-(3-Chloro-benzyl)-3-oxo-2,3-dihydro-pyridazin-4-yl]-butyrylamino}-5-fluoro-4-oxo-pentanoic acid]
kinact/KI (Caspase-8): 28300 M⁻¹ s⁻¹
IC50 [1]: 0.035 µM

CCC(C(=O)NC(CC(=O)O)C(=O)CF)c1ccnn(Cc2cccc(Br)c2)c1=O (centres unmarked) [Example 20, 3-{2-[2-(3-Bromo-benzyl)-3-oxo-2,3-dihydro-pyridazin-4-yl]-butyrylamino}-5-fluoro-4-oxo-pentanoic acid]
kinact/KI (Caspase-8): 18300 M⁻¹ s⁻¹
IC50 [1]: 0.043 µM

CCC(C(=O)NC(CC(=O)O)C(=O)CF)c1ccnn(Cc2ccccc2C(F)(F)F)c1=O (centres unmarked) [Example 21, 5-Fluoro-4-oxo-3-{2-[3-oxo-2-(2-trifluoromethyl-benzyl)-2,3-dihydro-pyridazin-4-yl]-butyrylamino}-pentanoic acid]
kinact/KI (Caspase-8): 66700 M⁻¹ s⁻¹
IC50 [1]: 0.043 µM

CCC(C(=O)NC(CC(=O)O)C(=O)CF)c1ccnn(Cc2cccc(C(F)(F)F)c2)c1=O (centres unmarked) [Example 22, 5-Fluoro-4-oxo-3-{2-[3-oxo-2-(3-trifluoromethyl-benzyl)-2,3-dihydro-pyridazin-4-yl]-butyrylamino}-pentanoic acid]
kinact/KI (Caspase-8): 14300 M⁻¹ s⁻¹
IC50 [1]: 0.216 µM

CC[C@H](C(=O)N[C@@H](CC(=O)O)C(=O)COc1c(F)ccc(F)c1F)c1ccnn(Cc2ccccc2C(C)(C)C)c1=O [Example 26-2, (S)-3-{(S)-2-[2-(2-tert-Butyl-benzyl)-3-oxo-2,3-dihydro-pyridazin-4-yl]-butyrylamino}-4-oxo-5-(2,3,6-trifluoro-phenoxy)-pentanoic acid]
kinact/KI (Caspase-8): 7830 M⁻¹ s⁻¹

CC[C@H](C(=O)N[C@@H](CC(=O)O)C(=O)COc1c(F)cccc1F)c1ccnn(Cc2ccccc2C(C)(C)C)c1=O [Example 27-2, (S)-3-{(S)-2-[2-(2-tert-Butyl-benzyl)-3-oxo-2,3-dihydro-pyridazin-4-yl]-butyrylamino}-5-(2,6-difluoro-phenoxy)-4-oxo-pentanoic acid]
kinact/KI (Caspase-8): 3170 M⁻¹ s⁻¹
